According to a melting point compilation (Tetko et al.; mined from patent text by program, amines drawn as free bases though some values may be those of a salt):

SMILES	melting point [°C]
C#CCN1CCC=C(c2ccc(C(C)(C)CCCCCC)cc2O)C1	116 to 117
CCOc1cccnc1CO	74.5 to 76
COc1ccc(-n2nnc3c(-c4ccc(C(F)(F)F)cc4F)ncnc32)cc1	175 to 177
NC(=O)c1c(Cl)c(-c2ccccc2)n2c1CN(S(=O)(=O)c1ccncc1)CC2	202 to 204
CN1CCN(C2=Nc3cc(C(F)(F)F)ccc3Nc3nn(C)nc32)CC1	109 to 111
CC1(C)c2cc(OS(C)(=O)=O)ccc2OC1O (configuration not stated)	69 to 72
CCOC(=O)CCNC(=O)C(=Cc1ccccc1)CSC(=O)c1ccccc1	< 50
O=C(O)C1(c2ccsc2)CC1	132 to 133
CC(c1ccccc1)C(CS)C(=O)NCC(=O)O (configuration not stated)	129
CCOC(=O)c1cc2cc(OCCCOC)cc(NS(=O)(=O)c3ccccn3)c2[nH]1	126 to 127
COc1ncnc(-c2cc([N+](=O)[O-])c(C#N)cc2F)c1C	129 to 131
CCOC(=O)c1ccc(NC=CS(=O)(=O)F)cc1	110 to 112
COc1ccc(C=C2c3ccccc3C(=NO)c3ccccc32)cc1O	140
Clc1ccc(C2=NOCCS2)s1	74 to 77
CN(C)c1cccc(N(C)C)c1NC(=O)N(Cc1ccc(O)cc1)CC1(c2ccccn2)CCCCC1	162 to 166
COc1ccc(C2(c3ccc(OC)cc3)CCN(C[C@@H]3C=C4c5cccc6[nH]c(Cl)c(c56)C[C@H]4N(C)C3)CC2)cc1	> 204
COc1ccc(C(=C/C=C/C(=O)NCCCc2cccc3ccncc23)c2ccc(OC)cc2)cc1	115 to 118
CC(C)CC(SC1CCCC1)c1c(O)cc(-c2ccccc2)oc1=O (configuration not stated)	146 to 149
CCCCCCCCCCCCCCOCC(CCC(=O)N(C)C)(CCC(=O)N(C)C)COCCCCCCCCCCCCCC	47 to 49
COC(=O)c1cccc(CC(=O)Nc2cccc(/C=C/c3nc(C4CCC4)cs3)c2)c1	119 to 120
CC1(C)Oc2ccc(CN)cc2[C@@H](N2CCCC2=O)[C@@H]1O (relative stereo)	191 to 193

SMILES	melting point [°C]
CC(=O)OC1CSC(Oc2cncc(-c3ccsc3)c2)C(OC(C)=O)C1OC(C)=O (configuration not stated)	175
CN(C(=O)OC(C)(C)C)C1CCN(c2nc(N3CCOCC3)nc(-n3c(C(F)F)nc4c(O)cccc43)n2)CC1	220 to 222
COc1cc(OC)nc(Sc2ccnc3cc(Cl)ccc23)n1	93 to 94.5
CC(C)n1cc(-c2nc(C(N)=O)c(N)nc2-c2cccc(OC(F)(F)F)c2)ccc1=O	266
C[C@H]1C(=O)C[C@@H]2C[C@H]1OO[C@]2(C)/C=C\c1ccc(C(F)(F)F)cc1C(F)(F)F	124
O=C(Cc1ccc(Cl)cc1Cl)c1ccc(Cl)cc1	119
Nc1ccc(Nc2c(NCc3ccccc3)cc(C(=O)O)cc2S(=O)(=O)Nc2ccccc2N)cc1	225
O=C1CCC(N2C(=O)c3cccc(NC(=O)COc4ccccc4)c3C2=O)C(=O)N1 (configuration not stated)	236 to 238
CNC(C)C/C=C/c1cnc(N)c(C)c1 (configuration not stated)	78 to 81
CCCCNC(=O)c1nc2cnn(CC)c2nc1OCC	115 to 117
N#Cc1ccc(Nc2cccc(I)c2)c(N)c1	170 to 172
CN(SC(Cl)(Cl)Cl)c1nc(C(Cl)(Cl)Cl)ns1	106
CC1(C)Cc2c(c(N3CCCC3)nc3sc4c(NCc5ccc(S(C)(=O)=O)cc5)ncnc4c23)CO1	324 to 326
CCCC1=CC(C)(C)Oc2c(OCC)cc(Cc3cnc(N)nc3N)cc21	208 to 209
CCOC(=O)c1cccc(Sc2nc(C)c(CC(=O)O)s2)n1	140 to 142
CCn1c(CO)nc(C(C)C)c1Sc1cc(F)cc(F)c1	102 to 104
COc1ccsc1NC(=O)Nc1cc([N+](=O)[O-])ccc1O	173
CC(C)(C)OC(=O)N1CCN(c2ccc3oc(C(N)=O)cc3c2)CC1	198 to 200
O=c1[nH]c2ccc3c(c2[nH]1)OC(CNCCCCc1ccccc1)CO3 (configuration not stated)	224 to 226
CN1C(=O)C(=CNc2ccncc2)C(=O)N(C)C1=O	233 to 235
CCC(C)=NNC(=O)c1cccc2nnsc12	159 to 162

SMILES	melting point [°C]
CCn1cc(C(=O)O)c(=O)c2cc(F)c(N3CCC(NS(=O)(=O)c4ccc(N)cc4)C3)c(F)c21 (configuration not stated)	214 to 216
O=C(O)Cc1c(C(=O)c2cccs2)[nH]c2cc(Cl)ccc12	177 to 178
CCOC(=O)[C@H](Cc1ccc(O)cc1)NC(=O)c1c(F)cccc1F	149 to 150
O=C(CN1CCC(O)CC1)Nc1cccc2c1C(=O)c1c-2n[nH]c1-c1ccc(N2CCOCC2)cc1	245
Nc1cc2c(c(C(=O)O)c1)NCCC2	207 to 208
CC(=O)Oc1c(Cc2ccccc2)ccc2c1ccn2C	56 to 58
COC(=O)c1ccc(-c2nc3cc([N+](=O)[O-])c([N+](=O)[O-])cc3[nH]2)cc1	239 to 240
O=C1NC(=O)C(Cc2ccc(OCc3coc(-c4ccccc4)n3)cc2)S1 (configuration not stated)	188 to 189
COc1ccc(C=CC=O)cc1OC	74 to 77
CC(=O)c1ccc(NC(=O)C(N)c2ccc3c(c2)C(C)(C)CCC3(C)C)cc1 (configuration not stated)	138 to 139
CC1CCC(C(C)C)C(C(=O)NC(C)(C)C)C1 (configuration not stated)	145 to 146
COc1ccc(C(=O)c2c(-c3ccc(OC)cc3)oc3cc(OC)ccc23)cc1	106 to 109
COc1ccc2cc(C(O)=CC(C)=O)cc(F)c2c1	107 to 108
CCOc1ccc(-c2nnc(C(N)=O)o2)cc1	188
N#CCSC(=S)SCc1ccc(Cl)cc1	41 to 43
CC(SC1COC(c2ccc(C(=O)Nc3ccc(C(N)=O)cc3)cc2)OC1)C(O)(Cn1cncn1)c1ccc(F)cc1F (configuration not stated)	230
Cc1[nH]c2c(N3CCNCC3)cccc2c1S(=O)(=O)c1ccccc1	188 to 190
Cc1c2n(c3ccccc13)C(=O)C(C(O)c1cn(C(c3ccccc3)(c3ccccc3)c3ccccc3)c(C)n1)CC2 (configuration not stated)	135 to 136
COc1cc(O)nc(N)n1	106 to 107

More lines, now with the values ahead:

melting point [°C]	SMILES
177 to 178	CC(CCC(F)(F)C(C)(C)O)C1CCC2C3CCC4=CC(=O)CCC4(C)C3CCC12C (configuration not stated)
235 to 237	CC1(C)Nc2ccc3c(c2N1)C(=O)c1ccccc1C3=O
149 to 153	CS(=O)(=O)N1CCC(NC(=O)OCc2ccccc2)CC1
167 to 169	CN(C)S(=O)(=O)c1ccccc1S(=O)(=O)NC(=O)Nc1nc(F)cc(OC(F)(F)F)n1
258 to 261	CC1CN(S(C)(=O)=O)Cc2nc3c(N)nc4ccccc4c3n21 (configuration not stated)
118 to 119	CCOC(=O)NS(=O)(=O)c1ccc2c(c1)C(=O)CO2
142 to 143	O=C(O)[C@H](Cc1cccc(OCC(F)(F)F)c1)[C@@H](O)c1ccc(F)cc1 (racemic)
188	Cc1cc2nc(C(C)C)c(CO)c(-c3ccc(F)cc3)n2n1
190 to 191	COc1ccc(C(=O)Nc2ccc(C(C)(C)CN3CCOC3=O)cc2)cc1OC
173 to 176	CCCCCCCCCCCCCCCCNc1ccc(C(=O)NS(=O)(=O)c2ccc(C(C)(C)C)cc2)cc1
220 to 221	Cc1ncccc1CN(CCn1cc(C)c2occc2c1=O)Cc1ccc2c(c1)NC(=O)C(C)(C)C(=O)N2CC1CC1
192 to 193	CCCCCC(CCn1ccnc1)Sc1ccc(C(C)(C)C)cc1 (configuration not stated)
244 to 246	CC(=O)Nc1cc2c(cc1[N+](=O)[O-])OC(C)(C)[C@@H](O)[C@@H]2NC(C)=O (relative stereo)
35 to 37	CCOCCOc1ccc(OCc2ccccc2)cc1
123 to 126	CC(C)(C)c1ccc(CCC(=O)N2C(=O)OC[C@@H]2Cc2ccccc2)cc1
153 to 155	CN(C(=O)NCC(=O)O)[C@H]1O[C@H](c2ccccc2Cl)c2cc(Cl)ccc2N(Cc2ccccc2)C1=O (relative stereo)
181 to 182	COc1ccc(CSc2nnc(-c3ccc4ncsc4c3)o2)cc1C#N
107	CCC([O-])=C(C(=O)OCc1ccccc1)N1C(=O)CC1[N+](CC)(CC)CC (configuration not stated)

melting point [°C]	SMILES
41.5 to 43.5	COc1ccc(Cc2ccc(C#N)cc2)cc1
113 to 115	COc1ccc(S(=O)c2ccccc2)cc1N (configuration not stated)
190	CN1CCN(C(=O)c2ccc(-c3[nH]nc4c3C(=O)c3c(NC(=O)NC5CNCCO5)cccc3-4)s2)CC1 (configuration not stated)
250 to 253	c1ccc2c(c1)ncn2CN1CCN(Cn2cnc3ccccc32)CC1
168 to 170	Cc1ccccc1-c1c(C(=O)NCc2cc(C(F)(F)F)cc(C(F)(F)F)c2)n(C)c(=O)c2ccccc12
193 to 194	COc1ccc2c(C(=O)N[C@H](Cc3ccc(C(F)(F)F)cc3)[C@@H](O)c3ccc(F)cc3)cccc2c1 (racemic)
52 to 53	CCOC(=O)CC(=O)c1cc(F)c(F)c(Cl)c1Cl
> 260	O=C(O)c1ccc(-c2ccc(Cl)s2)nc1
96 to 98	CC(C)c1ccc(O)c(C(C)C)c1NC(=O)CN1CCN(CCSc2nc3ccccc3o2)CC1
168 to 169	CC(C)CO/N=C(\C(=O)O)c1csc(NC(c2ccccc2)(c2ccccc2)c2ccccc2)n1
247	Cc1c(C(=O)Nc2ccc(N3CCC(O)CC3)c(C#N)c2)cnn1-c1ccc(Cl)cc1
260	CNc1ncc2c(=O)n(C)c(=O)n(C)c2n1
168 to 170	Cc1cc(C)cc(NC(=O)Nc2ccc(-c3c(C(N)=O)[nH]c4ccccc34)cc2)c1
171 to 174	Nc1nc(-c2ccc(F)c3ccccc23)co1
320 to 322	O=C1CC(c2cccc(OCc3ccccc3)c2)=Nc2ccc(N3CCCC3)cc21
131	Cc1ccc(S(=O)(=O)OCCCC2CCN(C(c3ccccc3)(c3ccccc3)c3ccccc3)CC2)cc1
157 to 159	Cc1ccc(NC(=O)NCc2ccc3c(c2)CN(C2CCC(=O)N(COC(=O)C4CCN(C(=O)OC(C)(C)C)CC4)C2=O)C3=O)cc1Cl (configuration not stated)
72.3 to 73.2	CC1(C)SC(=O)N(Cc2ccccc2[N+](=O)[O-])C1=O
